Reference: ChEMBL document CHEMBL3132769, “Fragment growing to retain or alter the selectivity of anchored kinase hinge-binding fragments” (Medchemcomm, 2014)

How the values were obtained:
[1] = molecular target: Protein kinase C beta type (Homo sapiens) (UniProt P05771); assay: Inhibition of human truncated PKC beta1 expressed in baculovirus assessed as substrate phosphorylation using fluorescence-labelled peptides as substrate at 0.06 uM after 90 mins by microfluidic peptide phosphorylation assay
[2] = molecular target: Serine/threonine-protein kinase pim-1 (Homo sapiens) (UniProt P11309); assay: Inhibition of human full length PIM1 expressed in baculovirus assessed as substrate phosphorylation using fluorescence-labelled peptides as substrate at 0.2 uM after 90 mins by microfluidic peptide phosphorylation assay
[3] = molecular target: T1, Calcium/calmodulin-dependent protein kinase type IV (Homo sapiens) (UniProt Q16566); assay: Inhibition of human full length CAMK4 expressed in baculovirus assessed as substrate phosphorylation using fluorescence-labelled peptides as substrate at 420 uM after 90 mins by microfluidic peptide phosphorylation assay
T1 sequence (whole entry): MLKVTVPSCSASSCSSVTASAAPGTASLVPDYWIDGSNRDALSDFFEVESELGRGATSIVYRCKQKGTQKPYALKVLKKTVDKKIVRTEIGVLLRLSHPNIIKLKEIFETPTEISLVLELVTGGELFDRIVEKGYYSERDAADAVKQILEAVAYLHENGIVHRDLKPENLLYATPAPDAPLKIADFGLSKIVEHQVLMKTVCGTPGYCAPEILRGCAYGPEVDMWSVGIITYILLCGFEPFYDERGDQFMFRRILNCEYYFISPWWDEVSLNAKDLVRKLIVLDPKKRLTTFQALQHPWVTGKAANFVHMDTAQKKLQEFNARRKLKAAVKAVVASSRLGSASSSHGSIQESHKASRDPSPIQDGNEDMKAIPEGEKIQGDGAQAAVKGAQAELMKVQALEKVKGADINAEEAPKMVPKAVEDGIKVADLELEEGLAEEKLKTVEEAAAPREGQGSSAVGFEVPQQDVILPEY

[4] = molecular target: T2, Testis-specific serine/threonine-protein kinase 2 (Homo sapiens) (UniProt Q96PF2); assay: Inhibition of human full length TSSK2 expressed in baculovirus assessed as substrate phosphorylation using fluorescence-labelled peptides as substrate at 420 uM after 90 mins by microfluidic peptide phosphorylation assay
T2 sequence (whole entry): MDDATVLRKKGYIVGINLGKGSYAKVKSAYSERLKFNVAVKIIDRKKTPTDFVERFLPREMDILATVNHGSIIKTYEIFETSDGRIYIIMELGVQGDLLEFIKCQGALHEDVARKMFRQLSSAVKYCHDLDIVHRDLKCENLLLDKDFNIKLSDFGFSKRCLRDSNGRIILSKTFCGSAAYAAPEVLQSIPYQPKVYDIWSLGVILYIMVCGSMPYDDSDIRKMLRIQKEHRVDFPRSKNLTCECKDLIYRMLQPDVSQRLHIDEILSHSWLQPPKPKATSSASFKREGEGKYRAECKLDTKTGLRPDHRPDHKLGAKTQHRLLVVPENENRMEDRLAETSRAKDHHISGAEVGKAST

[5] = molecular target: T3, MAP kinase-activated protein kinase 5 (Homo sapiens) (UniProt Q8IW41); assay: Inhibition of human full length PRAK expressed in baculovirus assessed as substrate phosphorylation using fluorescence-labelled peptides as substrate at 95 uM after 90 mins by microfluidic peptide phosphorylation assay
T3 sequence (whole entry): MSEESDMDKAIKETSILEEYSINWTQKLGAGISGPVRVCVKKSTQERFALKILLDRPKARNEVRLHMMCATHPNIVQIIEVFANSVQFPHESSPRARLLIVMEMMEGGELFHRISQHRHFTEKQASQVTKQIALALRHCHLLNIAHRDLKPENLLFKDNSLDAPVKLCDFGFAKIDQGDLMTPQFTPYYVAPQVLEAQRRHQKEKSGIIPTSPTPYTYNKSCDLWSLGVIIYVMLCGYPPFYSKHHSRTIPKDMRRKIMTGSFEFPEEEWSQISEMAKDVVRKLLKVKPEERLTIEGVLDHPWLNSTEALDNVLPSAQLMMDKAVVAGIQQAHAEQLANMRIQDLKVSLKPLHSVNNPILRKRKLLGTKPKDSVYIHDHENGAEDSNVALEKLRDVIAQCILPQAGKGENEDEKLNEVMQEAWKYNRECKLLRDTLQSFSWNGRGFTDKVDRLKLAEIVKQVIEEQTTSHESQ

[6] = molecular target: T4, Serine/threonine-protein kinase 3 (Homo sapiens) (UniProt Q13188); assay: Inhibition of human full length MST2 expressed in baculovirus assessed as substrate phosphorylation using fluorescence-labelled peptides as substrate at 9 uM after 90 mins by microfluidic peptide phosphorylation assay
T4 sequence (whole entry): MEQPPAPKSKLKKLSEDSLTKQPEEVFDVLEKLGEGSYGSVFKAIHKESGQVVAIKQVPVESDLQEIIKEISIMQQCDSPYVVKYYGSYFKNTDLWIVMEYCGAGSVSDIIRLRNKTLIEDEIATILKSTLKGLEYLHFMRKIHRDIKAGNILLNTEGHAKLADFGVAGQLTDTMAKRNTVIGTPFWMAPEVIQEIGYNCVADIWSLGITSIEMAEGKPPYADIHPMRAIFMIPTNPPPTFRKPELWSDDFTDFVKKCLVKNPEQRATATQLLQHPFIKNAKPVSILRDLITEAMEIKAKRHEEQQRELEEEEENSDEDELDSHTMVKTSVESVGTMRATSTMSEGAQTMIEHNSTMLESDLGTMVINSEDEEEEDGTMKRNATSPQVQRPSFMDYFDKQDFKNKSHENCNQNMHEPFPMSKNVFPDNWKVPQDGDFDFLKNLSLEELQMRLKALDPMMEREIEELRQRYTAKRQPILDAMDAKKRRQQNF

[7] = molecular target: T5, Serine/threonine-protein kinase Sgk2 (Homo sapiens) (UniProt Q9HBY8); assay: Inhibition of human full length SGK2 expressed in baculovirus assessed as substrate phosphorylation using fluorescence-labelled peptides as substrate at 1000 uM after 90 mins by microfluidic peptide phosphorylation assay
T5 sequence (whole entry): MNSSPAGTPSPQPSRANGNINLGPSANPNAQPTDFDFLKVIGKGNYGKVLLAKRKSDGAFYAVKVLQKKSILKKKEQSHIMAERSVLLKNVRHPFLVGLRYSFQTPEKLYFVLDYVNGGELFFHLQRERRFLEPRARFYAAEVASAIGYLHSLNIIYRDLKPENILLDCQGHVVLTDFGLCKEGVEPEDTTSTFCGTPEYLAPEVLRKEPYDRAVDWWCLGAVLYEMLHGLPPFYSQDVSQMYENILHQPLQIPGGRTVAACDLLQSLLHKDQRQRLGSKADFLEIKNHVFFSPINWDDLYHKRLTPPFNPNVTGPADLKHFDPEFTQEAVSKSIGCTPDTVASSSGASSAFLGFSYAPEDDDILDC

[8] = molecular target: Protein kinase C theta type (Homo sapiens) (UniProt Q04759); assay: Inhibition of human truncated PKC theta expressed in baculovirus assessed as substrate phosphorylation using fluorescence-labelled peptides as substrate at […] after 90 mins by microfluidic peptide phosphorylation assay
[9] = molecular target: T4, Serine/threonine-protein kinase 3 (Homo sapiens); assay: Inhibition of human full length MST2 expressed in baculovirus assessed as substrate phosphorylation using fluorescence-labelled peptides as substrate at 0.1 uM after 90 mins by microfluidic peptide phosphorylation assay

Chain of Protein kinase C beta type (Homo sapiens) (P05771 2-671 limits assumed): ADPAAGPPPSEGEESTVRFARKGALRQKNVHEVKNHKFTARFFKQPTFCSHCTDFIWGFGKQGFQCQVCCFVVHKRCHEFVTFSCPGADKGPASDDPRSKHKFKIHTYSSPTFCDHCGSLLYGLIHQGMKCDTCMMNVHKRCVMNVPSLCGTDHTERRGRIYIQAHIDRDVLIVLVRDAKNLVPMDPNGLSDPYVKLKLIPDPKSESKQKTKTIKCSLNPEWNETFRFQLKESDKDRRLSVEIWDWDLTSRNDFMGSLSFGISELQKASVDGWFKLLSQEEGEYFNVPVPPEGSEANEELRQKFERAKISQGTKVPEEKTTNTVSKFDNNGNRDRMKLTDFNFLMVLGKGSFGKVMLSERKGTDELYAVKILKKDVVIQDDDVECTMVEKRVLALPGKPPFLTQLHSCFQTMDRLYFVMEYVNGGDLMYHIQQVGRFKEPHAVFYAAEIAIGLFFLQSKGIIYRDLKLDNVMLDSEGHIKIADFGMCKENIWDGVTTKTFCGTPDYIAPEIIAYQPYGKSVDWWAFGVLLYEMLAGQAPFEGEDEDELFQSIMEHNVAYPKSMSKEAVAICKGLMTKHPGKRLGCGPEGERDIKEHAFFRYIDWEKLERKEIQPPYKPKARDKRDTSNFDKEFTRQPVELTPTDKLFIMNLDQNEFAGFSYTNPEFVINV
Chain of Protein kinase C theta type (Homo sapiens) (Q04759 whole entry, looked up, the tested form may be a part): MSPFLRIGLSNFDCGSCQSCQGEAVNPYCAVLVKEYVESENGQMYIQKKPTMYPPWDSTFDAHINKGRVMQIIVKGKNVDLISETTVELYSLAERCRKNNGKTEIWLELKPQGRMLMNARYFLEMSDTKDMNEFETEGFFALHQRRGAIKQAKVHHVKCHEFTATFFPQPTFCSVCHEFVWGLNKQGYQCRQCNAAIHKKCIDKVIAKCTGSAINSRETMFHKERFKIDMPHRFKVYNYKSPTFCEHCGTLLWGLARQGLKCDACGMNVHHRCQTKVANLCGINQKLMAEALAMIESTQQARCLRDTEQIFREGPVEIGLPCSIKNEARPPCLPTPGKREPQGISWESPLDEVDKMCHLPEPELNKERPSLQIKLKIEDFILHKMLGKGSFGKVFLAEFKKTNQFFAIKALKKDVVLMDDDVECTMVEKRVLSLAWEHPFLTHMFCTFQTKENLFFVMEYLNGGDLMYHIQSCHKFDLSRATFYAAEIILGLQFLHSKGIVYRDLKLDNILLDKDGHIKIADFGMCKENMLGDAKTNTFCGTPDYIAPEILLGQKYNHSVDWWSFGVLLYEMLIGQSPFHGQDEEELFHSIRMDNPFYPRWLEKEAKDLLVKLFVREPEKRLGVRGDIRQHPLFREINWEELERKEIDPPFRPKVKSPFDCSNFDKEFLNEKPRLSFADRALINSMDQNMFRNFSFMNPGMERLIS
Chain of Serine/threonine-protein kinase pim-1 (Homo sapiens) (P11309 whole entry, looked up): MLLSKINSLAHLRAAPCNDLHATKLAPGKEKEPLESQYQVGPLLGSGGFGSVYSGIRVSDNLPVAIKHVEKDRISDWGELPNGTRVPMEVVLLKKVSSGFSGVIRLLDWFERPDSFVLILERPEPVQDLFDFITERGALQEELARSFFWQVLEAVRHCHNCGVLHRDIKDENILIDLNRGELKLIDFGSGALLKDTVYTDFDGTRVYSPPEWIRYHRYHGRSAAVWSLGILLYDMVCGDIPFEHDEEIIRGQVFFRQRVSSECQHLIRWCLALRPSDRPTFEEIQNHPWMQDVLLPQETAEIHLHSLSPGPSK

## NC1(Cc2ccc(Cl)cc2)CCN(c2ncnc3[nH]ccc23)CC1
[1]
  inhibition: 3.5%

## Clc1ccc(C2(c3ccc(-c4ncnc5[nH]cnc45)cc3)CCNCC2)cc1
[2]
  inhibition: 0%

## c1nc(N2CCOCC2)c2nc[nH]c2n1
[3]
  inhibition: 62%
[4]
  inhibition: 24.5%

## NCCc1ccc(-c2ncnc3[nH]cnc23)cc1
[5]
  inhibition: 35%

## NCC1CN(c2ncnc3[nH]c4cnccc4c23)CCO1 (centres undefined)
[6]
  inhibition: 81%

## c1cnc2[nH]ccc2c1
[7]
  inhibition: 64%

## COC(=O)c1cnc(Nc2cnc(C#N)cn2)cc1NCC1CCNCC1
[8]
  inhibition: 4%

## C[C@H](CN(C)C)Oc1nc(Nc2cc3cccc(Cl)c3cn2)cnc1C#N
[9]
  inhibition: 11.5%
